Literature values in publication PMC7395068, “The evolution of strategies to minimise the risk of human drug-induced liver injury (DILI) in drug discovery and development” (Archives of Toxicology, 2020).
Like-named read-outs stand apart in the source and are kept apart here.

How the values were obtained:
[1] = tested on: primary human hepatocytes, NIH3T3 fibroblasts, BSEP, CYP3A4; details: In vitro Assay; ref Schadt 2015; cited from earlier work
[2] = tested on: isolated mouse liver mitochondria; details: In vitro Assay; ref Porceddu 2012; cited from earlier work
PHH spheroids = details: cited from earlier work; for hLiMTs ATP <20 x Cmax: In vitro Assay, ref Vorrink 2018
[3] = ref Chen 2016; cited from earlier work
rBsep = details: In vitro Assay; ref Dawson 2012; cited from earlier work
HepG2 cells [4] = details: In vitro Assay; ref Persson 2013; cited from earlier work
[5] = tested on: HepG2 cells, primary human hepatocytes; details: In vitro Assay; ref Garside 2014; cited from earlier work
[6] = tested on: THLE-Null and THLE-3A4 cells; details: In vitro Assay; ref Gustafsson 2014; cited from earlier work
[7] = cited from earlier work
[8] = tested on: HepG2 C3A spheroid, BSEP, Glu/Gal in HepG2 cells, bioactivation; details: cited from earlier work
human hepatocytes = details: In vitro Assay; ref Xu 2008; cited from earlier work
HepG2 cells [9] = details: In vitro Assay; ref O'Brien 2006; cited from earlier work
[10] = tested on: THLE or HepG2 cells, isolated mitochondria, BSEP; details: In vitro Assay; ref Aleo 2019; cited from earlier work

SMILES	hLiMTs ATP <20 x Cmax (PHH spheroids)	DILI +VE (5-8), DILI -VE (-4) [3]	DILI severity category [3]	Inhibition of rBsep cutoff<1& cmax u>.2 (rBsep)	Inhibition of rBsep cutoff<3 (rBsep)	Cluster 1-6 +VE Assay [5]	THLE-Null [6]	THLE-Null/3A4 [6]	In vivo DILI ([7]; ref Dawson 2012)	In vivo DILI ([7]; ref Garside 2014)	In vivo DILI ([7]; ref Gustafsson 2014)	In vivo DILI ([7]; ref Vorrink 2018)	Structural based (HCI) (human hepatocytes)	In vivo DILI ([7]; ref Xu 2008)	further results
CCCN(CCC)C(=O)Cc1c(-c2ccc(Cl)cc2)nc2ccc(Cl)cn12 [alpidem]	+VE (IC20 < 20 × Cmax.tot cut-off)	+VE	vMost-DILI-Concern	+VE	+VE	+VE	-VE	-VE	+VE	+VE	+VE	+VE	–	–	Cellular toxicity (3T3 cells) [1]: -VE; Combined Assay [1]: -VE; GSH adduct HML [1]: +VE; Hepatocyte cellular toxicity [1]: +VE; MitoTox 3T3 [1]: -VE; TDI CYP3A4 [1]: -VE; hBSEP inhibition [1]: +VE; in vitro data EC2<=1x Cmax [2]: +VE; in vitro data EC20<=2uM [2]: +VE; Cluser analysis (HepG2 cells [4]): +VE; Structural based (HCI) (HepG2 cells [4]): +VE; In vivo DILI ([7]; […]): +VE; In vivo DILI ([7]; ref Persson 2013): +VE; In vivo DILI ([7]; ref Porceddu 2012): +VE; In vivo DILI ([7]; ref Schadt 2015): +VE
Cc1c(N(C)C)c(=O)n(-c2ccccc2)n1C [aminopyrine]	–	–	–	–	–	–	–	–	–	–	–	–	–	–	Bayesian Machine Learning ([8]; ref Williams 2019): +VE
CC(C)(Oc1ccc(CCNC(=O)c2ccc(Cl)cc2)cc1)C(=O)O [bezafibrate]	-VE	–	–	-VE	-VE	-VE	-VE	-VE	+VE	+VE	+VE	-VE	-VE	-VE	Cellular toxicity (3T3 cells) [1]: -VE; Combined Assay [1]: -VE; GSH adduct HML [1]: -VE; Hepatocyte cellular toxicity [1]: -VE; MitoTox 3T3 [1]: -VE; TDI CYP3A4 [1]: -VE; hBSEP inhibition [1]: -VE; Structural based (HCI) (HepG2 cells [9]): +VE; In vivo DILI ([7]; ref O'Brien 2006): -VE; In vivo DILI ([7]; ref Schadt 2015): -VE
NNc1nnc(NN)c2ccccc12 [dihydralazine]	+VE (IC20 < 20 × Cmax.tot cut-off)	–	–	-VE	-VE	+VE	-VE	-VE	+VE	+VE	+VE	+VE	–	–	–
CCN(CC)C(=S)SSC(=S)N(CC)CC [disulfiram]	+VE (IC20 < 20 × Cmax.tot cut-off)	–	–	–	–	+VE	+VE	–	–	–	–	–	–	–	in vitro data EC2<=1x Cmax [2]: +VE
NCCc1ccc(O)c(O)c1 [dopamine]	-VE	-VE	vNo-DILI-Concern	-VE	-VE	-VE	-VE	-VE	-VE	-VE	-VE	-VE	-VE	-VE	–
O=C1[C@H](CC[C@H](O)c2ccc(F)cc2)[C@@H](c2ccc(O)cc2)N1c1ccc(F)cc1 [ezetimibe]	–	+VE	vLess-DILI-Concern	–	–	–	–	–	–	–	–	–	–	–	Bayesian Machine Learning ([8]; In vitro Assay, ref Williams 2019): -VE; In vivo DILI ([7]; ref Williams 2019): +VE
O=C(OCC(O)CO)c1ccccc1Nc1ccnc2cc(Cl)ccc12 (stereo not shown) [glafenine]	-VE	+VE	vMost-DILI-Concern	+VE	+VE	+VE	-VE	+VE	+VE	+VE	+VE	+VE	-VE	+VE	In vivo DILI ([7]; […]): +VE
Cc1ccc(S(=O)(=O)NC(=O)NN2CC3CCCC3C2)cc1 (stereo not shown) [gliclazide]	–	–	–	-VE	-VE	-VE	-VE	-VE	+VE	+VE	+VE	–	-VE	-VE	–
CC(C)NNC(=O)c1ccncc1 [iproniazid, reference compound]	-VE	+VE	vMost-DILI-Concern	-VE	-VE	-VE	-VE	-VE	+VE	+VE	+VE	+VE	–	–	response of PHH spheroids at 5 × Cmax.tot (PHH spheroids; ATP, 14 days, not positive at higher concentrations, ref Vorrink et al. 2018): positive; Cluser analysis (HepG2 cells [4]): -VE; Structural based (HCI) (HepG2 cells [4]): +VE; Partition Hybrid HRM Score [10]: -VE; Ro2 Hybrid HRM Score [10]: -VE; In vivo DILI ([7]; […]): +VE; In vivo DILI ([7]; ref Aleo 2019): +VE; In vivo DILI ([7]; ref Persson 2013): +VE
CN1C[C@H](CNC(=O)OCc2ccccc2)C[C@@H]2c3cccc4c3c(cn4C)C[C@H]21 [metergoline]	–	–	–	–	–	–	–	–	–	–	–	–	–	–	Bayesian Machine Learning ([8]; ref Williams 2019): -VE
CN(C)CCN(Cc1cccs1)c1ccccn1 [methapyrilene]	-VE	–	–	–	–	-VE	-VE	–	-VE	-VE	-VE	-VE	–	–	Structural based (HCI) (HepG2 cells [9]): +VE; In vivo DILI ([7]; ref O'Brien 2006): +VE
CN1Cc2c(N)cccc2C(c2ccccc2)C1 (stereo not shown) [nomifensine]	+VE (IC20 < 20 × Cmax.tot cut-off)	+VE	vMost-DILI-Concern	-VE	–	-VE	-VE	–	+VE	+VE	+VE	+VE	-VE	+VE	Structural based (HCI) (HepG2 cells [9]): -VE; Cluser analysis (HepG2 cells [4]): -VE; Structural based (HCI) (HepG2 cells [4]): -VE; Partition Hybrid HRM Score [10]: +VE; Ro2 Hybrid HRM Score [10]: -VE; In vivo DILI ([7]; ref Aleo 2019): +VE; In vivo DILI ([7]; ref O'Brien 2006): -VE; In vivo DILI ([7]; ref Persson 2013): +VE
CC(N/C(=N\C#N)Nc1ccncc1)C(C)(C)C (stereo not shown) [pinacidil]	-VE	–	–	-VE	+VE	+VE	-VE	-VE	–	–	–	–	-VE	–	Structural based (HCI) (HepG2 cells [9]): -VE; Cluser analysis (HepG2 cells [4]): -VE; Structural based (HCI) (HepG2 cells [4]): -VE; In vivo DILI ([7]; in vivo): -VE
CC(=O)Nc1ccc(OCC(O)CNC(C)C)cc1 (stereo not shown) [practolol]	-VE	–	–	-VE	-VE	-VE	-VE	–	–	–	–	–	–	–	–
CCCN(CCC)S(=O)(=O)c1ccc(C(=O)O)cc1 [probenecid]	–	-VE	Ambiguous DILI-concern	-VE	-VE	+VE	-VE	-VE	+VE	+VE	+VE	–	–	–	Cellular toxicity (3T3 cells) [1]: -VE; Combined Assay [1]: -VE; GSH adduct HML [1]: -VE; Hepatocyte cellular toxicity [1]: -VE; MitoTox 3T3 [1]: -VE; TDI CYP3A4 [1]: -VE; hBSEP inhibition [1]: -VE; In vivo DILI ([7]; ref Schadt 2015): -VE
CN(C)C(=O)Oc1ccc[n+](C)c1 [pyridostigmine]	–	–	–	–	–	–	–	–	–	–	–	–	–	–	Bayesian Machine Learning [8]: -VE
Cc1ncc(CO)c(CO)c1O [pyridoxine]	-VE	-VE	vNo-DILI-Concern	-VE	-VE	-VE	-VE	-VE	-VE	-VE	-VE	-VE	-VE	-VE	Structural based (HCI) (HepG2 cells [9]): +VE; Cluser analysis (HepG2 cells [4]): -VE; Structural based (HCI) (HepG2 cells [4]): -VE; In vivo DILI ([7]; ref O'Brien 2006): -VE; In vivo DILI ([7]; ref Persson 2013): -VE
